Entries after “also recorded” stand apart in the source; their conditions may differ.
Columns and labels:
[1] = UV-Vis absorption spectra and thermal relaxation of the cis isomers in DMSO; assay type: physicochemical; conditions: 60 μM in 100% DMSO, 37 °C; for λn−π* (cis): after illumination; for λπ–π* (trans): dark
Experimental: (§1) The UV–vis absorbance spectra of all molecules were measured in the dark and after the application of light of different wavelengths ranging from 365 to 770 nm (Figure A and Figures S1–S3). […] Consequently, violet/UV light below 405 nm efficiently promoted photoisomerization, which produced a dramatic decrease in the π-π* band and a significant increase in the n-π* band at around 445 nm (Table ). […] The proportion of molecules at the PSS in trans isomer upon constant illumination with light at 525 nm and cis at 365 nm was in general above 50%, reaching a remarkable >99% for compound 11d (Table and Figures S4 and S5). […] The greater stability of the trans isomer was consistent with previous quantum mechanical and molecular mechanics predictions. Measuring the photoisomerization properties of compound PhotoVDRM allowed us to determine the photoisomerization quantum yields of the compound by solving a differential equation for photoisomerization. We used MATLAB to perform regression and arrive at the following photoisomerization quantum yields: ϕ365 nm (trans) = 0.0427, ϕ365 nm (cis) = 0.0501, ϕ470 nm (trans) = 0.1857, and ϕ470 nm (cis) = 0.2281 (Figure S9). Compound PhotoVDRM was also evaluated in aqueous buffer used for pharmacological experiments (0.5% DMSO) showing a thermal relaxation of 3 h, almost 7 times faster than in pure DMSO (Figure B). […] A deeper photocharacterization of PhotoVDRM allowed us to measure the kinetics of photoconversion upon constant illumination with two wavelengths and three light intensities (Figure D and Figure S10). […] Indeed, with LED devices producing light at intensities as low as 0.05 mW/mm^2 we were able to transform trans to cis in around 15.5 s. This time was reduced to 6 and 2 s when the light intensity was increased to 0.15 and 0.75 mW/mm^2. […] Therefore, we proceeded to test the ability of the chemical library to activate the VDR under different light conditions.
2. Photochemical characterization. […]
(200 µL per well). The absorption spectra were recorded from 300 to 600 nm with 2 nm fixed intervals using a Tecan Spark 20M Multimode microplate reader. Initial measurements were performed in the dark, followed by spectra acquired immediately after each 3 min period of light irradiation at different wavelengths using 96-well LED array plates (LEDA Teleopto). Theoretical absorbance spectra corresponding to the pure cis isomer (100%) of each compound were calculated in order to obtain the theoretical percentage of cis isomer at each wavelength, according to the method described by Ernst Fischer (1967). Thermal relaxation kinetics of the experimental cis isomers were assessed in quartz cuvettes (10 mm optical path) containing freshly prepared 50 […]
Dark state absorbance at 365 nm was recorded at 37
ºC using a ThermoFisher Evolution 350 UV-Vis spectrophotometer. Samples were then irradiated for 3 minutes at 365 nm with a CoolLED pE-4000 light sourceto induce trans → cis photoisomerization.. Absorbance at 365 nm was subsequently monitored over 48 h: every 15 min during the first 24 h, and every 60 min during the following 24 h. Relaxation half-lives were determined by fitting the absorbance-time data to a […] exponential model using GraphPad Prism v10.4.1. […]

[2] = Photostationary state (PSS) determination by HPLC-MS in aqueous assay buffer; assay type: physicochemical; conditions: for PSS365 (% cis) / PSS525 (%trans): 21 °C, HPLC-MS, 60 μM, aqueous buffer 0.6% DMSO; for PSS365 (% cis): 3 min illumination 365 nm; for PSS525 (%trans): 3 min illumination 525 nm
Experimental: as §1
Photostationary state (PSS) determination. In a transparent vial, solutions of the compounds were prepared at a concentration of 60 µM from a 10 mM stock in DMSO, using the assay buffer of pharmacological experiments for dilution. Prior to illumination, a volume of 500 µL was transferred to an amber vial for the "dark" sample. The same procedure was repeated after exposing the transparent vial containing the 60 µM solutions to the following light conditions:
365nm for 3 minutes and 525nm for 3 minutes. […]
difference on isomeric proportions. For each sample, 20 µL was analyzed by HPLC-MS, and the isomer ratios were determined at the isosbestic point.
Isosbestic point determination. The solvent percentage for the elution of each isomer were calculated based on their retention times from HPLC analysis. Subsequently, 50 µM solutions were prepared from the 10 mM DMSO stock solution of each compound using the previously determined HPLC solvent mixture. The UV spectrum for each solution was recorded after illumination at 365 nm (30 seconds), at 400 nm (30 seconds), and at 525 nm (30 seconds). The spectra were overlaid to identify the isosbestic point of maximum intensity.
HPLC conditions. Analytical HPLC was performed on a Thermo Ultimate 3000SD (Thermo Scientific Dionex) coupled to a PDA detector and Mass Spectrometer LTQ XL ESI-ion trap (Thermo Scientific). Cromatographic separations were performed using a ZORBAX Eclipse Plus C18 (4.6 x 150mm; 3.5µm) column. The mobile phase consisted of an isocratic mixture of solvent A (water with 0.05% of formic acid) and solvent B (acetonitrile with 0.05% formic acid) at a 3:7 ratio for compounds 10a-d and a 2:3 ratio for compounds 11a-d and 12a-d. […]

[3] = Photoisomerization quantum yield (MATLAB regression); assay type: physicochemical
Experimental: as §1

[4] = Serum total calcium measurement in mice (Arsenazo III); assay type: in vivo; conditions: after treatment i.p. days 2-4 (LSN2148936 0.005 mg/kg, PhotoVDRM 0.5 mg/kg), 420 or 520 nm

Row | SMILES | t 1/2 (thermal relaxation of cis) [1] [h] | λn−π* (cis) [1] [nm] | λπ–π* (trans) [1] [nm] | PSS365 (% cis) [2] [%] | PSS525 (%trans) [2] [%] | proportion of cis at PSS 460 nm ([2]; 460 nm, assay buffer (Figure S4D)) [%] | photoisomerization quantum yield ϕ365 nm (cis) ([3]; 365 nm, cis) | photoisomerization quantum yield ϕ365 nm (trans) ([3]; 365 nm, trans) | photoisomerization quantum yield ϕ470 nm (cis) ([3]; 470 nm, cis) | photoisomerization quantum yield ϕ470 nm (trans) ([3]; 470 nm, trans) | effect on calcium homeostasis (serum total calcium) [4]
1 | COC(=O)c1ccc(-c2cccc(/N=N/c3ccc(OCC(O)C(C)(C)C)c(C)c3)c2)cc1 (stereo not shown) [Compound 10a] | 9.3 | 446 | 366 | 83 | 86 | – | – | – | – | – | –
2 | COC(=O)c1ccc(-c2cccc(/N=N/c3ccc(OCC(O)C(C)(C)C)cc3C)c2)cc1 (stereo not shown) [Compound 10b] | 7.6 | 440 | 360 | 78 | 73 | – | – | – | – | – | –
3 | COC(=O)c1ccc(-c2cccc(/N=N/c3ccc(OCC(O)C(C)(C)C)c(C)c3)c2)c(C)c1 (stereo not shown) [Compound 10c] | 12.5 | 444 | 366 | 73 | 83 | – | – | – | – | – | –
4 | COC(=O)c1ccc(-c2cccc(/N=N/c3ccc(OCC(O)C(C)(C)C)cc3C)c2)c(C)c1 (stereo not shown) [Compound 10d] | 8.2 | 438 | 360 | 88 | 81 | – | – | – | – | – | –
5 | Cc1cc(/N=N/c2cccc(-c3ccc(C(=O)O)cc3)c2)ccc1OCC(O)C(C)(C)C (stereo not shown) [Compound 11a] | 9.1 | 440 | 366 | 94 | 74 | – | – | – | – | – | –
6 | Cc1cc(OCC(O)C(C)(C)C)ccc1N=Nc1cccc(-c2ccc(C(=O)O)cc2)c1 (stereo not shown) [Compound 11b] | 20.5 | 442 | 362 | 95 | 55 | 63 | 0.0501 | 0.0427 | 0.2281 | 0.1857 | null impact; also recorded: without concomitant hypercalcemia
7 | Cc1cc(/N=N/c2cccc(-c3ccc(C(=O)O)cc3C)c2)ccc1OCC(O)C(C)(C)C (stereo not shown) [Compound 11c] | 25.4 | 444 | 364 | 96 | 84 | – | – | – | – | – | –
8 | Cc1cc(OCC(O)C(C)(C)C)ccc1/N=N/c1cccc(-c2ccc(C(=O)O)cc2C)c1 (stereo not shown) [Compound 11d] | 17.7 | 444 | 362 | >99 | 61 | – | – | – | – | – | –
9 | Cc1cc(/N=N/c2cccc(-c3ccc(CO)cc3)c2)ccc1OCC(O)C(C)(C)C (stereo not shown) [Compound 12a] | 9.1 | 444 | 364 | 80 | 87 | – | – | – | – | – | –
10 | Cc1cc(OCC(O)C(C)(C)C)ccc1/N=N/c1cccc(-c2ccc(CO)cc2)c1 (stereo not shown) [Compound 12b] | 6.8 | 444 | 362 | 84 | 84 | – | – | – | – | – | –
11 | Cc1cc(OCC(O)C(C)(C)C)ccc1/N=N/c1cccc(-c2ccc(CO)cc2C)c1 (stereo not shown) [Compound 12d] | 8.2 | 446 | 362 | 88 | 82 | – | – | – | – | – | –

— paper PMC12746157, “Light-Regulated Agonists Spatiotemporally Activating the Vitamin D Receptor Mitigate Psoriasis-like Inflammation in Mice without Inducing Hypercalcemia” (ACS Central Science, 2025)
